Assays:
Conditions in all cases: Compound concentration 1.0 uM
[1] = target: Tribbles homolog 2 (Homo sapiens) (UniProt Q92519)
[2] = target: T1, NUAK family SNF1-like kinase 2 (Homo sapiens) (UniProt Q9H093)
T1 sequence (whole entry): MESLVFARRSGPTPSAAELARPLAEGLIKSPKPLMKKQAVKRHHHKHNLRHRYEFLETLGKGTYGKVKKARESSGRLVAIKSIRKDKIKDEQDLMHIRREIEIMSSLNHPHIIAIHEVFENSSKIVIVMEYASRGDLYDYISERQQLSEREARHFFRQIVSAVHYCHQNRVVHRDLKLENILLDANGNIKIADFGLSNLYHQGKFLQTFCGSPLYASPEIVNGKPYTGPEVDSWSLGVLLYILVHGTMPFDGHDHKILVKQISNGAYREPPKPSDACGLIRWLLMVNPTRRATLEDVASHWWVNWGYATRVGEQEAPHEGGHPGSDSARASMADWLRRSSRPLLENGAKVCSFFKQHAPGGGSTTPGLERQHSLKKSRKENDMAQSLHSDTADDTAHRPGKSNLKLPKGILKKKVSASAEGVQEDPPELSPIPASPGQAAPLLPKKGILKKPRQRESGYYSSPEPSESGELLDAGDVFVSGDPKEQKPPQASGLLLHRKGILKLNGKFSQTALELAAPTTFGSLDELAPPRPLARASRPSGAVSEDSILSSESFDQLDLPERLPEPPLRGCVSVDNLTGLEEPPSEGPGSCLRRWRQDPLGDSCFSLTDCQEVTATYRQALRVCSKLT

[3] = target: Insulin-like growth factor 1 receptor (Homo sapiens) (UniProt P08069)
Insulin-like growth factor 1 receptor (Homo sapiens), sequence (P08069 31-736 limits assumed): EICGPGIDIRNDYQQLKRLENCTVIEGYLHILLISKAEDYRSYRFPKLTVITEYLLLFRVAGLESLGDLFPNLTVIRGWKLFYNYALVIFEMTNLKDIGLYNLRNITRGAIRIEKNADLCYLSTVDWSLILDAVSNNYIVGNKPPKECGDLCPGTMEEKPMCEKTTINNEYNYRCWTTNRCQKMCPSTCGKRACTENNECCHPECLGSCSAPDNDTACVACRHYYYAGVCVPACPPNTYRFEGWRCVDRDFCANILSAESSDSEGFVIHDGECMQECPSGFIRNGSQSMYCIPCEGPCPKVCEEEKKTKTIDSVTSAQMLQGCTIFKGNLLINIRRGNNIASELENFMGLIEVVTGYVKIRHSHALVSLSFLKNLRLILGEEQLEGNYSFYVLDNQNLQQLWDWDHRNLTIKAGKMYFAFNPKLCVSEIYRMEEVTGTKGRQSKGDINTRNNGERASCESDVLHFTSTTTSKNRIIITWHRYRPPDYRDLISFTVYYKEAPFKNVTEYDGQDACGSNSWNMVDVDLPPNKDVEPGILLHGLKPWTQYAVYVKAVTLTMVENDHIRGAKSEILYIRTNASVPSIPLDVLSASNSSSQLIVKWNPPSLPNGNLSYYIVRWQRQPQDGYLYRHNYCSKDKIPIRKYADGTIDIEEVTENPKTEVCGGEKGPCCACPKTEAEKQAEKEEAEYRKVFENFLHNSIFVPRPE
Insulin-like growth factor 1 receptor (Homo sapiens), sequence (P08069 741-1367 limits assumed): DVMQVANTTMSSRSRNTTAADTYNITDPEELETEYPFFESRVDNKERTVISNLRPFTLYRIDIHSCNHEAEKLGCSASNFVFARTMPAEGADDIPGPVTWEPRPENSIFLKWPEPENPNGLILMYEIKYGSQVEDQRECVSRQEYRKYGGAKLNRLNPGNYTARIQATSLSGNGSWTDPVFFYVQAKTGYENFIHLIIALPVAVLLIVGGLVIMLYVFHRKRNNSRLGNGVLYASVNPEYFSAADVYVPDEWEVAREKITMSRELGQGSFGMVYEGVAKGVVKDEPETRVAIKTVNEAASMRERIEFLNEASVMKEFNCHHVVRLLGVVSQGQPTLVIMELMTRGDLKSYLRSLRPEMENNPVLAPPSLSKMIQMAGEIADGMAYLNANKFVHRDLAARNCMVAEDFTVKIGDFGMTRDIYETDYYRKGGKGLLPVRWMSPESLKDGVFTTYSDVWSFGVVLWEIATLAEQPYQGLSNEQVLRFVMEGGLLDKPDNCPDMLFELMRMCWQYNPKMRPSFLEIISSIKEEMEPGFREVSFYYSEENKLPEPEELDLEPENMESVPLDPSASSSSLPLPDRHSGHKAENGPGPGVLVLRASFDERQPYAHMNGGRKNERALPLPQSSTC

[4] = target: T2, Serine/threonine-protein kinase TAO1 (Homo sapiens) (UniProt Q7L7X3)
T2 sequence (whole entry): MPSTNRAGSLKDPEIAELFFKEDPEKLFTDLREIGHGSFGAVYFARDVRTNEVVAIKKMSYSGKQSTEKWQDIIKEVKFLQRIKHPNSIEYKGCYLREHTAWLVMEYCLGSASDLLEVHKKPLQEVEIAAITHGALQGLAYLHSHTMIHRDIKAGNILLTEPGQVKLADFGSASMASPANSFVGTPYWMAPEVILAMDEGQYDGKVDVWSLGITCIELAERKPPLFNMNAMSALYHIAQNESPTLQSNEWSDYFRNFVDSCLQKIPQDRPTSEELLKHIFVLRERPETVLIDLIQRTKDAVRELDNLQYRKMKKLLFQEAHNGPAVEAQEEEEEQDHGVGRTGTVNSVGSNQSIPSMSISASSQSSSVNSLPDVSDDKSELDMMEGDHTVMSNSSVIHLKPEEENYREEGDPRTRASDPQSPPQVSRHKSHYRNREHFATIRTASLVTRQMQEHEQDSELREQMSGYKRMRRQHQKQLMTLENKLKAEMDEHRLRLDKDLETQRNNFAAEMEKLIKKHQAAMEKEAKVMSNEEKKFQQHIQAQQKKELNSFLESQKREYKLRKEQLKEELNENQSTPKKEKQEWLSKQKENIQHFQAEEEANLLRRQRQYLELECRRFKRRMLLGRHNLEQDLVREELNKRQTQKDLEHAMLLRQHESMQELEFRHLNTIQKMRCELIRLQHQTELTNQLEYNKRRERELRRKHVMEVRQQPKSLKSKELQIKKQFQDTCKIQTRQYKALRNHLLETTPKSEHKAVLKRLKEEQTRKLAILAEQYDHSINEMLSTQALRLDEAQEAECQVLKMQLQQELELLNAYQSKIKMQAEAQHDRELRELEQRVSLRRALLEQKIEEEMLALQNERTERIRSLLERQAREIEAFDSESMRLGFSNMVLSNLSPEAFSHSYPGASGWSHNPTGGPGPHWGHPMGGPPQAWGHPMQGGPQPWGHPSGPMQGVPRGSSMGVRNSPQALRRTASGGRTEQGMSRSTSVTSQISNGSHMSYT

[5] = target: Fibroblast growth factor receptor 3 (Homo sapiens) (UniProt P22607)
[6] = target: T3, Serine/threonine-protein kinase 4 (Homo sapiens) (UniProt Q13043)
T3 sequence (whole entry): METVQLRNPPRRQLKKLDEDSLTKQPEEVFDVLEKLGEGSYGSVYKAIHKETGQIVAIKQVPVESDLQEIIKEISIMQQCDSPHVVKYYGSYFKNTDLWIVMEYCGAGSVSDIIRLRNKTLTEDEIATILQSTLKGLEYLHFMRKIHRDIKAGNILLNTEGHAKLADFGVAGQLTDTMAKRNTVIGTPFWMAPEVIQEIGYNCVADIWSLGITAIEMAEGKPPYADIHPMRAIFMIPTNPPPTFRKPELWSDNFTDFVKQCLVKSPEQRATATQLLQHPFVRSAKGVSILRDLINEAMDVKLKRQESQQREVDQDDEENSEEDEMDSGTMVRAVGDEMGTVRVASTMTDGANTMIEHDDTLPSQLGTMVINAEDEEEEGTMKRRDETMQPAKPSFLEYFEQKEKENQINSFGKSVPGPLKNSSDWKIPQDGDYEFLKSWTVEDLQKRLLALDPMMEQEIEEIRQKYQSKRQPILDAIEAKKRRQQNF

[7] = target: Transient receptor potential cation channel subfamily M member 7 (Homo sapiens) (UniProt Q96QT4)
[8] = target: Serine/threonine-protein kinase N1 (Homo sapiens) (UniProt Q16512)
Serine/threonine-protein kinase N1 (Homo sapiens), sequence (Q16512 2-942 limits assumed): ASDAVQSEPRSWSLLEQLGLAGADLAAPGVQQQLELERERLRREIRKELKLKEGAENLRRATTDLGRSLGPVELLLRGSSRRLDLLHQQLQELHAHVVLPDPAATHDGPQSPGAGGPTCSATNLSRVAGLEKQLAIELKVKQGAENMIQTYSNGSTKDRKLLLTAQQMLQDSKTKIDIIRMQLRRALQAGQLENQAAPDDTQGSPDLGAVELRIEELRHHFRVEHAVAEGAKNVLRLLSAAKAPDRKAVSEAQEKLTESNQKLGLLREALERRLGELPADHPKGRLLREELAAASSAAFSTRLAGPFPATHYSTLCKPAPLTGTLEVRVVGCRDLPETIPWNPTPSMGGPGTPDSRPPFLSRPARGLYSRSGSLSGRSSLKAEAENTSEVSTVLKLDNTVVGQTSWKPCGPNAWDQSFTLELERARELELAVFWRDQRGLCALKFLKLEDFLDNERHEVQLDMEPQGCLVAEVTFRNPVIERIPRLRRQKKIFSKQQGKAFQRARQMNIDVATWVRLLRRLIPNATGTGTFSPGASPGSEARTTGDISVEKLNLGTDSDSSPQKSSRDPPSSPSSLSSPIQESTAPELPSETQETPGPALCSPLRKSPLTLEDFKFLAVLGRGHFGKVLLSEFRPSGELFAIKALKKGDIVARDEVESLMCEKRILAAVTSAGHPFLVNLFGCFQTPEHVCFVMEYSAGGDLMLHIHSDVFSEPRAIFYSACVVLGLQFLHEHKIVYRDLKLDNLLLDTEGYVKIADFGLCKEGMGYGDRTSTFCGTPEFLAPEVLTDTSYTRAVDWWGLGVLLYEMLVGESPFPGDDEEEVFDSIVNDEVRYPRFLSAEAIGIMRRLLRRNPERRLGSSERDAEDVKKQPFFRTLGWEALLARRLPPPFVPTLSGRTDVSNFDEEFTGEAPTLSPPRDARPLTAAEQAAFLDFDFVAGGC

[9] = target: Activin receptor type-1-like (Homo sapiens) (UniProt P37023)
Activin receptor type-1-like (Homo sapiens), sequence (P37023 whole entry): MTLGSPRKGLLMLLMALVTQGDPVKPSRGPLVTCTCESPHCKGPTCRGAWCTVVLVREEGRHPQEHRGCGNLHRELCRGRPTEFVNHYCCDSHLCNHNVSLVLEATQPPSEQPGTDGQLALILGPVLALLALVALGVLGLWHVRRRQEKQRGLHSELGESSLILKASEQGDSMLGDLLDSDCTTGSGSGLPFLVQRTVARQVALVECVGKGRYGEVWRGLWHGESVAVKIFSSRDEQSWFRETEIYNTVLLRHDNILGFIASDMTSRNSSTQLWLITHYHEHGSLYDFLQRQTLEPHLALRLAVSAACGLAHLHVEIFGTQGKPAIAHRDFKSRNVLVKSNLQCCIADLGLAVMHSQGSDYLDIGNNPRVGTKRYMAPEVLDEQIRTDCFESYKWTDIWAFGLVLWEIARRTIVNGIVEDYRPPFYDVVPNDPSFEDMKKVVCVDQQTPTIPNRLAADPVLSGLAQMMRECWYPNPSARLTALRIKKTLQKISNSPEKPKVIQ

[10] = target: Vascular endothelial growth factor receptor 3 (Homo sapiens) (UniProt P35916)
Vascular endothelial growth factor receptor 3 (Homo sapiens), sequence (P35916 whole entry): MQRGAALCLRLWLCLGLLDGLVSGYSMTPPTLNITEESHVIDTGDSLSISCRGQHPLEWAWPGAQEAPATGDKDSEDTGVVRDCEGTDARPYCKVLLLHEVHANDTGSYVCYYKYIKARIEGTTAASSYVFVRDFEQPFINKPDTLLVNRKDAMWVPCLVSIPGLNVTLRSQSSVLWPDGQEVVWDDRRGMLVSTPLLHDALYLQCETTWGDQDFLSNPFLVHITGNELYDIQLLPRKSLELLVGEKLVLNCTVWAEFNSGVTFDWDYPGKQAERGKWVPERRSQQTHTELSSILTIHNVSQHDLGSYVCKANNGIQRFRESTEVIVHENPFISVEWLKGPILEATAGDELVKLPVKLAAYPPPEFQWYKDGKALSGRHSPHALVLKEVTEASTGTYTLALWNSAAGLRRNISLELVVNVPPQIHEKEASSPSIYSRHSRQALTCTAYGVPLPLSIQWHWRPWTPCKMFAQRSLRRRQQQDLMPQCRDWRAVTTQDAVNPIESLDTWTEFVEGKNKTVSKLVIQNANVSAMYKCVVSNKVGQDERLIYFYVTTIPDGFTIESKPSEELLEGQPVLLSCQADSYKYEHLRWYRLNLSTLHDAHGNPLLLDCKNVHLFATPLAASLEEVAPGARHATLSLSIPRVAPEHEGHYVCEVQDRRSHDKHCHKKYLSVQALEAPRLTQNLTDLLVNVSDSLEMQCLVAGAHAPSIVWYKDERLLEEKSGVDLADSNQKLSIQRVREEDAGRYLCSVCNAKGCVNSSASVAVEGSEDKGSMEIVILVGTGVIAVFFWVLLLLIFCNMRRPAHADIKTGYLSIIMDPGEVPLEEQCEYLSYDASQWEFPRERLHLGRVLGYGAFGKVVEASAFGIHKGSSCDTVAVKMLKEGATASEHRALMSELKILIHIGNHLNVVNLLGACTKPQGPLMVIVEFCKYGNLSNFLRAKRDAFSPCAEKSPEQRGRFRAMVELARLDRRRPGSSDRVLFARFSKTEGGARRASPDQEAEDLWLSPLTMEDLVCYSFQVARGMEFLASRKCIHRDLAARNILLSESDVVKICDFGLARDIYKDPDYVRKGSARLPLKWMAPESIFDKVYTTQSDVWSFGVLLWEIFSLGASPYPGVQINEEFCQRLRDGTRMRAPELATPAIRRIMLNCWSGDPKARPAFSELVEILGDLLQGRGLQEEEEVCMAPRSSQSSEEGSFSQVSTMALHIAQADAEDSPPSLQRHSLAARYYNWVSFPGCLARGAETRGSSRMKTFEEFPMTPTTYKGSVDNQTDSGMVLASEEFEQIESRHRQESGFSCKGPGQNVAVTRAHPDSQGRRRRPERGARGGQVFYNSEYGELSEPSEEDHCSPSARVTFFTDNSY

Measured: % residual kinase activity

Tribbles homolog 2 (Homo sapiens), sequence (Q92519 whole entry): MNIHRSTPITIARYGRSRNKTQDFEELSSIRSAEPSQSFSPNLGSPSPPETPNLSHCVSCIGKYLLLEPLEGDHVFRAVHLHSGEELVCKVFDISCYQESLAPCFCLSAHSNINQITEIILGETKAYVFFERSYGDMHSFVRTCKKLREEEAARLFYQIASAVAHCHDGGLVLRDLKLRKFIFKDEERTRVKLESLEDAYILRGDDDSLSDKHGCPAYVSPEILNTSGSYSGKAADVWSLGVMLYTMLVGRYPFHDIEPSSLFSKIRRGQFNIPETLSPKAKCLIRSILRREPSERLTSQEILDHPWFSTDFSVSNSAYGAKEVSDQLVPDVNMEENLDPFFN

CN1CCN(c2cnc3c(C4CCN(C(=O)c5ccc(OC(F)(F)F)cc5N)CC4)ncnc3c2)CC1 [BAY-885]
inactive: [1] 109% | [2] 111% | [3] 107% | [4] 100% | [5] 106% | [6] 117% | [7] 122% | [8] 114% | [9] 118% | [10] 98%
